# pKi: −log10 of the molar value. Where a SMILES comes first, the peptide text is derived from it. Bridges are numbered along the chain shown (N, C = ends).
# What was measured:
# E. coli 08040726 [1] = assay type: cell-based; details: 08040726, 18 h
# Method: (§1) A two-fold broth microdilution method described in our previous paper was used to determine the antimicrobial activities of parental and hybrid peptides. More than 30 strains including Gram-negative bacteria, Gram-positive bacteria and fungi were used in the current assay, in which the standard strains were stored in our lab and the clinical strains were collected from local hospitals. Briefly, bacteria were incubated in Mueller-Hinton broth (MH broth) at 37 °C to exponential phase and diluted to 10^6 CFU/mL. A serial dilution of peptide sample were prepared in 96-well microtiter plates (50 μL) and mixed with equal volume of microbial inoculums (50 μL). The plate was slowly shaken in the microbial incubator, and measured at A595 after incubation at 37 °C for 18 h. The minimal concentrations at which no microbial growth occurred were recorded as MIC (minimal inhibitory concentration) values. The traditional antibiotic ampicillin was used as positive control. The results are shown in an average of the MICs obtained from three independent experiments.
# E. coli 08040726 [2] = assay: MIC, two-fold broth microdilution (second listing of the strain number); assay type: cell-based; details: Gram-negative, MH broth, 37 °C, 18 h, mean of three independent experiments in duplicates
# Method: as §1
# Aeromonas sobria = assay: microbe, parasite or virus in culture; assay type: cell-based; details: Aquatic pathogenic bacteria; two-fold broth microdilution, 37 °C, 18 h; mean of three independent experiments in duplicates
# Method: as §1
# Aeromonas veronii = assay: microbe, parasite or virus in culture; assay type: cell-based; details: Aquatic pathogenic bacteria; two-fold broth microdilution, 37 °C, 18 h; mean of three independent experiments in duplicates
# Method: as §1
# [3] = tested on: Bacillus subtilis 08042313; assay: microbe, parasite or virus in culture; assay type: cell-based; details: 08042313, 18 h
# Method: as §1
# [4] = tested on: Candida albicans 08030102; assay: microbe, parasite or virus in culture; assay type: cell-based; details: 08030102, 18 h
# Method: as §1
# Candida glabrata 08A802 = assay: microbe, parasite or virus in culture; assay type: cell-based; details: 08A802, 18 h
# Method: as §1
# E. Coli 08032823 = assay: microbe, parasite or virus in culture; assay type: cell-based; details: 08032823, 18 h
# Method: as §1
# Edwardsiella tarda = assay: microbe, parasite or virus in culture; assay type: cell-based; details: 18 h
# Method: as §1
# [5] = tested on: Enterococcus faecium 08052315; assay: microbe, parasite or virus in culture; assay type: cell-based; details: 08052315, 18 h
# Method: as §1
# [6] = tested on: Escherichia coli ATCC25922; assay: microbe, parasite or virus in culture; assay type: cell-based; details: ATCC25922, 18 h
# Method: as §1
# K. Pneumoniae 08031012 = assay: microbe, parasite or virus in culture; assay type: cell-based; details: Gram-negative; two-fold broth microdilution, MH broth, 37 °C, 18 h; mean of three independent experiments in duplicates
# Method: as §1
# K. Pneumoniae 08040202 = assay: microbe, parasite or virus in culture; assay type: cell-based; details: Gram-negative; two-fold broth microdilution, MH broth, 37 °C, 18 h; mean of three independent experiments in duplicates
# Method: as §1
# [7] = tested on: Nocardia asteroides 08052412; assay: microbe, parasite or virus in culture; assay type: cell-based; details: 18 h
# Method: as §1
# P. Aeruginosa 08021015 = assay: microbe, parasite or virus in culture; assay type: cell-based; details: 08021015, 18 h
# Method: as §1
# Proteus mirabilis 1376 = assay: microbe, parasite or virus in culture; assay type: cell-based; details: 1376, 18 h
# Method: as §1
# S. Aureus 08032615 = assay: microbe, parasite or virus in culture; assay type: cell-based; details: 08032615, 18 h
# Method: as §1
# S. Aureus 08032706 = assay: microbe, parasite or virus in culture; assay type: cell-based; details: Gram-positive; two-fold broth microdilution, MH broth, 37 °C, 18 h; mean of three independent experiments in duplicates
# Method: as §1
# S. Aureus 08032810 = assay: microbe, parasite or virus in culture; assay type: cell-based; details: Gram-positive; two-fold broth microdilution, MH broth, 37 °C, 18 h; mean of three independent experiments in duplicates
# Method: as §1
# S. Maltophilia 090223 = assay: microbe, parasite or virus in culture; assay type: cell-based; details: 090223, 18 h
# Method: as §1
# Vibrio brasiiensis = assay: microbe, parasite or virus in culture; assay type: cell-based; details: 18 h
# Method: as §1
# Vibrio cholerae = assay: microbe, parasite or virus in culture; assay type: cell-based; details: 18 h
# Method: as §1
# Vibrio harveyi = assay: microbe, parasite or virus in culture; assay type: cell-based; details: 18 h
# Method: as §1
# E. Coli 08032813 = assay: MIC, two-fold broth microdilution; assay type: cell-based; details: Gram-negative; two-fold broth microdilution, MH broth, 37 °C, 18 h; mean of three independent experiments in duplicates
# Method in brief: (§2)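 Growth at A595 after 18 h at 37 °C defines the MIC, taken as the minimal peptide concentration giving no microbial growth. Organisms were grown to exponential phase in Mueller-Hinton broth and diluted to 10^6 CFU/mL prior to combining with an equal volume of peptide dilutions.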
# [8] = tested on: Staphylococcus epidermidis; assay: MIC, two-fold broth microdilution; assay type: cell-based; details: Gram-positive; two-fold broth microdilution, MH broth, 37 °C, 18 h; mean of three independent experiments in duplicates
# Method in brief: as §2
# Vibrio Parahaemolyticus = assay: MIC, two-fold broth microdilution; assay type: cell-based; details: Aquatic pathogenic bacteria; two-fold broth microdilution, 37 °C, 18 h; mean of three independent experiments in duplicates
# Method in brief: as §2
# 08030209 = assay: microbe, parasite or virus in culture; assay type: cell-based, Arcyria cinerea; details: Fungi; two-fold broth microdilution, 37 °C, 18 h; mean of three independent experiments in duplicates
# Method: as §1
# trypsin = assay: Trypsin inhibition assay (NBLAN hydrolysis, Dixon method); assay type: biochemical; details: 50 mM Tris–HCl pH 7.8, trypsin 0.1 mg/mL, 5 min pre-incubation at 37 °C, substrate NBLAN 48, 96, 192 μg/mL, 405 nm
# Method: The inhibition effect on the hydrolysis of synthetic chromogenic substrate by trypsin was assayed in 50 mM Tris–HCl, pH 7.8 buffer at room temperature. The trypsin of final concentration of 0.1 mg/mL and different amounts of the hybrid peptide (final concentrations ranging from 0 to 0.16 μg/mL) were pre-incubated for 5 min at 37 °C. N-α-Benzoyl-DL-arginine p-nitroanilide hydrochloride (NBLAN) was used as a substrate for trypsin. The reaction was initiated by the addition of NBLAN with a final concentration of 48, 96 and 192 μg/mL, respectively. The formation of yellow product, p-nitroaniline was monitored continuously at 405 nm[61]. The inhibition constant Ki of the hybrid peptides were determined according to the method of Dixon (1953)[62].
smiles,measurement,setting,value
CC[C@H](C)[C@@H]1NC(=O)[C@H](CO)NC(=O)[C@H](CCCCN)NC(=O)[C@H]([C@@H](C)O)NC(=O)[C@H](Cc2c[nH]c3ccccc23)NC(=O)[C@@H](NC(=O)[C@H](Cc2ccccc2)NC(=O)[C@H](CCCCN)NC(=O)[C@H](CCCCN)NC(=O)[C@@H](NC(=O)[C@H](C)NC(=O)[C@H](CCCNC(=N)N)NC(=O)[C@H](CCCNC(=N)N)NC(=O)[C@@H](NC(=O)[C@H](CO)NC(=O)[C@H](CCCCN)NC(=O)[C@H](CC(C)C)NC(=O)[C@H](CC(C)C)NC(=O)[C@H](CCCNC(=N)N)NC(=O)[C@H](CCCCN)NC(=O)[C@H](Cc2ccccc2)NC(=O)[C@H](Cc2ccccc2)NC(=O)[C@@H](N)CCCCN)C(C)C)C(C)C)CSSC[C@@H](C(=O)O)NC(=O)[C@@H]2CCCN2C(=O)[C@H](CCCCN)NC(=O)[C@@H]2CCCN2C(=O)[C@@H]2CCCN2C1=O [H3TI] (H-KFFKRLLKSVRRAVKKFCWTKSIPPKPC-OH; disulfide 18-28),MIC E. coli 08040726,E. coli 08040726 [1],9.38 µg/mL
same,MIC E. Coli 08040726 (second line with this strain number),E. coli 08040726 [2],— (no detectable activity in MIC assay in dose of 200 µg/mL or in trypsin inhibition assay at concentration of 160 μg/mL)
same,MIC Aeromonas sobria,Aeromonas sobria,— (no detectable activity in MIC assay in dose of 200 µg/mL or in trypsin inhibition assay at concentration of 160 μg/mL)
same,MIC Aeromonas veronii,Aeromonas veronii,— (no detectable activity in MIC assay in dose of 200 µg/mL or in trypsin inhibition assay at concentration of 160 μg/mL)
same,MIC Bacillus subtilis 08042313,[3],9.38 µg/mL
same,MIC Candida albicans 08030102,[4],4.69 µg/mL
same,MIC Candida glabrata 08A802,Candida glabrata 08A802,4.69 µg/mL
same,MIC E. Coli 08032823,E. Coli 08032823,37.5 µg/mL
same,MIC Edwardsiella tarda,Edwardsiella tarda,37.5 µg/mL
same,MIC Enterococcus faecium 08052315,[5],9.38 µg/mL
same,MIC Escherichia coli ATCC25922,[6],37.5 µg/mL
same,MIC K. Pneumoniae 08031012,K. Pneumoniae 08031012,— (no detectable activity in MIC assay in dose of 200 µg/mL or in trypsin inhibition assay at concentration of 160 μg/mL)
same,MIC K. Pneumoniae 08040202,K. Pneumoniae 08040202,— (no detectable activity in MIC assay in dose of 200 µg/mL or in trypsin inhibition assay at concentration of 160 μg/mL)
same,MIC Nocardia asteroides 08052412,[7],18.75 µg/mL
same,MIC P. Aeruginosa 08021015,P. Aeruginosa 08021015,37.5 µg/mL
same,MIC Proteus mirabilis 1376,Proteus mirabilis 1376,37.5 µg/mL
same,MIC S. Aureus 08032615,S. Aureus 08032615,37.5 µg/mL
same,MIC S. Aureus 08032706,S. Aureus 08032706,— (no detectable activity in MIC assay in dose of 200 µg/mL or in trypsin inhibition assay at concentration of 160 μg/mL)
same,MIC S. Aureus 08032810,S. Aureus 08032810,— (no detectable activity in MIC assay in dose of 200 µg/mL or in trypsin inhibition assay at concentration of 160 μg/mL)
same,MIC S. Maltophilia 090223,S. Maltophilia 090223,18.75 µg/mL
same,MIC Vibrio brasiiensis,Vibrio brasiiensis,18.75 µg/mL
same,MIC Vibrio cholerae,Vibrio cholerae,75 µg/mL
same,MIC Vibrio harveyi,Vibrio harveyi,37.5 µg/mL
same,MIC E. Coli 08032813,E. Coli 08032813,— (no detectable activity in MIC assay in dose of 200 µg/mL or in trypsin inhibition assay at concentration of 160 μg/mL)
same,MIC Staphylococcus epidermidis,[8],— (no detectable activity in MIC assay in dose of 200 µg/mL or in trypsin inhibition assay at concentration of 160 μg/mL)
same,MIC Vibrio Parahaemolyticus,Vibrio Parahaemolyticus,4.69 µg/mL
same,MIC Arcyria cinerea 08030209,08030209,— (no detectable activity in MIC assay in dose of 200 µg/mL or in trypsin inhibition assay at concentration of 160 μg/mL)
same,pKi,trypsin,5.26
